{"source": "patent US20260174829A1", "about": "“METHODS OF REDUCING TYPE 2 CYTOKINE-MEDIATED INFLAMMATION USING NEUROMEDIN PEPTIDES” (Rutgers, The State University of New Jersey, priority 2018, published 2026)", "system": "papain-induced allergic airway inflammation", "assay": "Papain-induced allergic airway inflammation, Nmb i.t.", "format": "in vivo, mouse", "settings": "papain-challenged mice, Nmb i.t. vs PBS, lung", "description": "FIGS. 7A-7I. Nmb treatment is sufficient to suppress allergic airway inflammation. Mice challenged with papain were treated with PBS or Nmb (i.t.) and (A) Lung ILC2s, (B) IL-5+ and IL-13+ ILC2s, and (C) eosinophils were evaluated. […] Mesenteric lymph nodes (MLNs) were isolated on day 7 post-Nb and single cells suspensions were treated with anti-CD3 and anti-CD28 in the presence or absence of Nmb for 48 hours and (E), IL-5 and (F) IL-13 were quantified in cell-free supernatants by ELISA. (F-I), Modified versions of Nmb (see Table 2) were tested for their ability to alter IL-5 and IL-13 production from anti-CD3 and anti-CD28 MLN cells isolated on day 7 post-Nb. P values were determined by two-tailed Student's t-tests. Blue asterisks represent comparisons between media treated controls and native Nmb. Red asterisks represent comparisons between media treated controls and modified version of Nmb as described in Table 2. (*,p<0.05), (**,p<0.01), (***,p<0.001) or (F-I).\nA well-established model of papain-induced allergic airway inflammation known to be dependent on ILC2s was utilized (19, 20). Mice treated with papain presented with elevated percentages of ILC2s (FIG. 7A), elevated expression of IL-5 and IL-13 by ILC2s (FIG. 7B) and lung eosinophilia (FIG. 7C). […] Thus, Nmb negatively regulate ILC2 responses both in vivo and in vitro.", "data": [{"substance": "H2N-GNLWATGHFM-amide [Nmb]", "values": [{"measurement": "papain-induced ILC2 responses", "result": "sufficient to reduce"}, {"measurement": "papain-induced eosinophilia", "result": "sufficient to reduce"}]}]}
